Source: US11419916B2, “Methods and compositions for inducing differentiation of human brown adipocyte progenitors” (Energesis Pharmaceuticals, Inc., priority 2014, dated 2022)
Structures can show the parent of a compound that is named as a salt.

B1: BMP-7: recombinant human bone morphogenetic protein 7, UniProt P18075 (protein, UniProt P18075 293-431, looked up)
Bone morphogenetic protein 7: STGSKQRSQNRSKTPKNQEALRMANVAENSSSDQRQACKKHELYVSFRDLGWQDWIIAPEGYAAYYCEGECAFPLNSYMNATNHAIVQTLVHFINPETVPKPCCAPTQLNAISVLYFDDSSNVILKKYRNMVVRACGCH

What was measured:
[1] = tested on: CD31-cells (brown adipocyte progenitors); assay: Quantification of UCP1 protein by immunohistochemistry (IHC); assay type: cell-based, human; settings: total intensity of UCP1 signal normalized to cell number
Experimental: Differentiation of brown adipocyte progenitors into brown adipocytes can be detected through quantification of UCP1 protein by immunohistochemistry (IHC).
Culturing and differentiation of CD31-cells into brown adipocytes were performed using adipogenic differentiation medium lacking (Minimal Differentiation Medium, MDM) or containing 1 μM rosiglitazone (Reference Differentiation Medium, RDM). After 15 days of differentiation cells were fixed with 4% Paraformaldehyde PBS pH 7.4, and incubated with a UCP1 antibody (Abcam ab23841) and Alexafluor 488 goat anti-rabbit antibody to quantify relative UCP1 levels (green) according to standard protocols. Prior to fixation of cells, nuclei were labeled with 5 μM DAPI (blue) for 10 minutes. Each treatment condition was evaluated in triplicate in a 96-well plate corresponding to approximately 360-480 cells for each data point in total. The InCell 1000 Developer Toolbox software was used to develop an automated cell detection script to measure UCP1 signal intensity, using the nuclei and cytoplasm detection algorithms. As a readout, total intensity of UCP1 signal within the cell was used, normalized to cell number.

CD31-cells = assay: Light microscopic photos of cell morphology, brown adipocyte differentiation; assay type: cell-based, human; settings: FIGS. 23A-23H
Experimental: (§1) Cells were seeded at 10,000 per cm^2 in 0.2% gelatin coated plates (48-well tissue culture, Chemglass #CLS-3500-048), cultured until confluency (2-4 days) at 37° C. in Endothelial cell growth medium-2 (EGM2) (BulletKit growth medium, Lonza #CC-3162) and until differentiation (10-16 more days). After 2 or 3 days in EGM2 medium the cells were induced to differentiate by replacing the medium with an adipogenic medium, which is a modification of the adipogenic medium described by Rodriguez et al. and may or may not contain a differentiation inducing agent (e.g., PPARγ agonist). The MDM described above contains: DMEM/Ham's F-12 50/50 Mix (3.151 g/l, 17.5 mM D-glucose, 3.651 g/l L-glutamine) (Cellgro #10-090-CV), 5 μg/ml (0.86 μM) insulin, 1 μM dexamethasone, 100 μM 3-isobutyl-1-methylxanthine, 0.2 nM 3,3′,5-triiodo-L-thyronine, 10 μg/ml (127 nM) transferrin, and 1% penicillin-streptomycin. If rosiglitazone is used as a differentiation-inducing agent, it can be supplied at 1 μM or any other concentration sufficient to induce differentiation of BAT progenitor cells into adipocytes.
Pictures of cells were taken using a hand-held digital camera (Nikon Coolpix 950) and inverted microscope (Nikon TMS) used for cell culture observations; images were optimized using Adobe Photoshop Elements 8 functions for Auto Contrast and Auto Levels.

[2] = tested on: CD31-cells (BAT progenitor cells isolated from human skeletal muscle); assay: Quantification of UCP1 and PPARγ2 mRNA (normalized to cyclophilin A) by multiplexed TaqMan real-time PCR to quantify differentiation into brown adipocytes; assay type: cell-based
From the text: A robust method, previously disclosed in WO2013071063 and incorporated herein by reference, was used for detection of CD31-cell differentiation into brown adipocytes by simultaneously quantifying mRNA species corresponding to the brown adipocyte marker UCP1, the adipocyte marker PPARγ2, and the “housekeeping” gene cyclophilin A which was used as the internal control.
This method permits analysis of a large number of samples to identify agents that enhance the differentiation of CD31-cells into brown adipocytes. When differentiated into brown adipocytes CD31-cells express much higher levels of UCP1 and PPARγ2 mRNA for a given level of cyclophilin A. UCP1 and PPARγ2 mRNA levels normalized to cyclophilin A mRNA levels give an indication of the level of differentiation of the CD31-cells into brown adipocytes, independent of the total number of cells in the sample.
Quantification of UCP1, PPARγ2 and cyclophilin A mRNA by multiplexed TaqMan real-time PCR was thus used to quantify differentiation of the CD31-cells into brown adipocytes.
as §1, with “The MDM described above contains: DMEM/Ham's F-12 50/50 Mix (3.151 g/l, 17.5 mM D-glucose, 3.651 g/l L-glutamine) (Cellgro #10-090-CV), 5 μg/ml (0.86 μM) insulin, 1 μM dexamethasone, 100 μM 3-isobutyl-1-methylxanthine, 0.2 nM 3,3′,5-triiodo-L-thyronine, 10 μg/ml (127 nM) transferrin, and 1% penicillin-streptomycin.” left out
Total RNA was prepared from cells using PureLink RNA Isolation Kit (Invitrogen #12183-016) First strand cDNA were synthesized using the High Capacity cDNA Reverse Transcription kit (Applied Biosystems, Foster City, Calif.) and random primers.
Quantitative real-time PCR was performed using an Applied Biosystems StepOnePlus™ instrument, TaqMan Gene Expression Master Mix (Applied Biosystems #4369016), and custom TaqMan gene expression probes and primers for human uncoupling protein-1 “UCP1” (GenBank NM_021833) and for human peptidylprolyl isomerase A “cyclophilin A” (GenBank NM_021130).
Cyclophilin A was used as a control to account for any variations due to the efficiency of reverse transcription. Arbitrary units were determined by normalizing target mRNA levels to cyclophilin A mRNA levels (based on Cts).

Row | Molecule | UCP1 protein signal (IHC), differentiation of brown adipocyte progenitors into brown adipocytes [1] | brown adipocyte differentiation (light microscopy) (CD31-cells) | differentiation of BAT progenitor cells into brown adipocytes and/or expression of UCP1, PPARγ2 mRNA [2]
1 | O=C(O)c1cc(-c2ccc(F)cc2F)ccc1O [Diflunisal] | identified using this technique | promote brown adipocyte formation | 
2 | CCCN(CCC)S(=O)(=O)c1ccc(C(=O)O)cc1 [Probenecid] | identified using this technique | promote brown adipocyte formation | 
3 | CCOC(=O)Oc1c(OC)cc(C(=O)O[C@@H]2C[C@@H]3CN4CCc5c([nH]c6cc(OC)ccc56)[C@H]4C[C@@H]3[C@H](C(=O)OC)[C@H]2OC)cc1OC [Syrosingopine] | identified using this technique | promote brown adipocyte formation | 
4 | CCN(CC)CCNC(=O)c1cc(S(C)(=O)=O)ccc1OC [Tiapride hydrochloride] | identified using this technique | promote brown adipocyte formation | 
5 | O=c1c(O)c(-c2ccc(O)cc2)oc2cc(O)cc(O)c12 [kaempferol] |  | promote brown adipocyte formation | promote the differentiation of BAT progenitor cells into brown adipocytes and/or induce the expression of UCP1
6 | B1 |  | promote brown adipocyte formation | promote the differentiation of BAT progenitor cells into brown adipocytes and/or induce the expression of UCP1
